Assay results as given in patent publication US20230085307A1, “PYRIDAZINONE COMPOUND AND HERBICIDE” (NISSAN CHEMICAL CORPORATION, priority 2019, published 2023).

Experiments:
[1] = test system: southern crabgrass; assay: Test Example 5: herbicidal effect by foliage application, plastic box (Table 20, symbol F); format: in vivo, southern crabgrass (Digitaria ciliaris); conditions: foliage application
Summary of the method: (§1)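 Plants were sown into sterilized diluvial soil under about 1.5 cm cover and kept in a greenhouse at 25° C. to 30° C. Fourteen days on, foliage received an even spray of the diluted emulsion. Herbicidal or crop effect was judged three weeks afterwards.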

[2] = test system: Italian ryegrass; assay: Test Example 5: herbicidal effect by foliage application, plastic box (Table 20, symbol K); format: in vivo, Italian ryegrass (Lolium multiflorum); conditions: foliage application
Summary of the method: as §1

[3] = test system: lambsquarters; assay: Test Example 5: herbicidal effect by foliage application, plastic box (Table 20, symbol O); format: in vivo, lambsquarters (Chenopodium album); conditions: foliage application
Summary of the method: as §1

[4] = test system: blackgrass; assay: Test Example 5: herbicidal effect by foliage application, plastic box (Table 20, symbol J); format: in vivo, blackgrass (Alopecurus myosuroides); conditions: foliage application
Summary of the method: as §1

[5] = test system: velvetleaf; assay: Test Example 5: herbicidal effect by foliage application, plastic box (Table 20, symbol M); format: in vivo, velvetleaf (Abutilon theophrasti); conditions: foliage application
Summary of the method: as §1

[6] = test system: barnyard grass; assay: Test Example 5: herbicidal effect by foliage application, plastic box (Table 20, symbol H); format: in vivo, barnyard grass (Echinochloa crus-galli); conditions: foliage application
Summary of the method: as §1

[7] = test system: rice flat sedge; assay: Test Example 3: herbicidal effect by foliage application, Wagner pot (Table 18, symbol E); format: in vivo, rice flat sedge (Cyperus iria); conditions: 320 g/ha
Summary of the method: (§2)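 Plants were sown in alluvial soil held under 0.1–0.5 cm standing water and grown 14 days in a greenhouse at 25–30 °C. An emulsifiable formulation, water-diluted to the set dose, was then sprayed onto the foliage, and effects were scored three weeks later using previously defined criteria.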

[8] = test system: persian speedwell; assay: Test Example 5: herbicidal effect by foliage application, plastic box (Table 20, symbol R); format: in vivo, Persian speedwell (Veronica persica); conditions: foliage application
Summary of the method: as §1

[9] = test system: Chinese sprangletop; assay: Test Example 3: herbicidal effect by foliage application, Wagner pot (Table 18, symbol D); format: in vivo, chinese sprangletop (Leptochloa chinensis); conditions: 320 g/ha
Summary of the method: as §2

[10] = test system: redroot pigweed; assay: Test Example 5: herbicidal effect by foliage application, plastic box (Table 20, symbol N); format: in vivo, redroot pigweed (Amaranthus retroflexus); conditions: foliage application
Summary of the method: as §1

[11] = test system: false cleavers; assay: Test Example 5: herbicidal effect by foliage application, plastic box (Table 20, symbol Q); format: in vivo, false cleavers (Galium spurium); conditions: foliage application
Description: [Test Example 5] Herbicidal Effect Test by Foliage Application
Sterilized diluvial soil was placed in a plastic box having a length of 21 cm, a width of 13 cm, and a depth of 7 cm. The seeds of each of southern crabgrass, green foxtail, barnyard grass, wild oat, blackgrass, Italian ryegrass, windgrass, velvetleaf, redroot pigweed, lambsquarters, chickweed, false cleavers, persian speedwell, corn, soybean, rice, wheat, beet, and rapeseed were sowed in a spot-like manner and covered with the soil having a thickness of about 1.5 cm. Thereafter, the plants were grown in a greenhouse at 25° C. to 30° C. After 14-day growth of the plants, the emulsion agent of the compound of the present invention prepared according to Formulation Example 2 was diluted with water so as to achieve a predetermined herbicide amount, and the diluted emulsion agent was uniformly applied to a foliage part with a small-sized spray. Three weeks after the herbicide application, the effect of the herbicide on each plant was evaluated according to the criteria of Test Example 1.

[12] = test system: wild oat; assay: Test Example 5: herbicidal effect by foliage application, plastic box (Table 20, symbol I); format: in vivo, wild oat (Avena fatua); conditions: foliage application
Summary of the method: as §1

[13] = test system: chickweed; assay: Test Example 5: herbicidal effect by foliage application, plastic box (Table 20, symbol P); format: in vivo, common chickweed (Stellaria media); conditions: foliage application
Summary of the method: as §1

[14] = test system: barnyard grass; assay: Test Example 3: herbicidal effect by foliage application, Wagner pot (Table 18, symbol H); format: in vivo, barnyard grass (Echinochloa crus-galli); conditions: 320 g/ha
Summary of the method: as §2

[15] = test system: green foxtail; assay: Test Example 5: herbicidal effect by foliage application, plastic box (Table 20, symbol G); format: in vivo, green foxtail (Setaria viridis); conditions: foliage application
Summary of the method: as §1

[16] = test system: windgrass; assay: Test Example 5: herbicidal effect by foliage application, plastic box (Table 20, symbol L); format: in vivo, windgrass (Apera spica-venti); conditions: foliage application
Summary of the method: as §1

[17] = 320 g/ha, three weeks after application
[18] = AAH 80 g/ha, three weeks after application
[19] = 270 g/ha, 3 weeks after application
[20] = 320 g/ha, evaluated three weeks after application

CSc1cc(F)ccc1-c1sc2ccccc2c1-c1c(O)c(C)nn(C)c1=O [1-063]
herbicidal effect grade, F: southern crabgrass [1, 17]: 0 (Herbicidal rate of 5% or less (almost no effect))
herbicidal effect grade, K: Italian ryegrass [2, 17]: 1 (Herbicidal rate of 5% or more and less than 20%)
herbicidal effect grade, O: lambsquarters [3, 17]: 3 (Herbicidal rate of 40% or more and less than 70%)
herbicidal effect grade, J: blackgrass [4, 17]: 3 (Herbicidal rate of 40% or more and less than 70%)
herbicidal effect grade, M: velvetleaf [5, 17]: 0 (Herbicidal rate of 5% or less (almost no effect))
herbicidal effect grade, H: barnyard grass [6, 17]: 0 (Herbicidal rate of 5% or less (almost no effect))
herbicidal effect on E (rice flat sedge), rating 0-5 [7]: 3 (Herbicidal rate of 40% or more and less than 70%)
herbicidal effect grade, R: persian speedwell [8, 17]: 4 (Herbicidal rate of 70% or more and less than 90%)
herbicidal effect on D (Chinese sprangletop), rating 0-5 [9]: 0 (Herbicidal rate of 5% or less (almost no effect))
herbicidal effect grade, N: redroot pigweed [10, 17]: 0 (Herbicidal rate of 5% or less (almost no effect))
herbicidal effect grade, Q: false cleavers [11, 17]: 2 (Herbicidal rate of 20% or more and less than 40%)
herbicidal effect grade, I: wild oat [12, 17]: 2 (Herbicidal rate of 20% or more and less than 40%)
herbicidal effect grade, P: chickweed [13, 17]: 5 (Herbicidal rate of 90% or more (almost completely withered))
herbicidal effect on H (barnyard grass), rating 0-5 [14]: 2 (Herbicidal rate of 20% or more and less than 40%)
herbicidal effect grade, G: green foxtail [15, 17]: 0 (Herbicidal rate of 5% or less (almost no effect))

CCCC(=O)Oc1c(OC)nn(C)c(=O)c1-c1c(-c2ccc(-c3ccccc3)cc2)sc2ccccc12 [1-167]
F: southern crabgrass, herbicidal effect [1, 18]: 0 (Herbicidal rate of 5% or less (almost no effect))
K: Italian ryegrass, herbicidal effect [2, 18]: 0 (Herbicidal rate of 5% or less (almost no effect))
O: lambsquarters, herbicidal effect [3, 18]: 2 (Herbicidal rate of 20% or more and less than 40%)
J: blackgrass, herbicidal effect [4, 18]: 0 (Herbicidal rate of 5% or less (almost no effect))
M: velvetleaf, herbicidal effect [5, 18]: 0 (Herbicidal rate of 5% or less (almost no effect))
H: barnyard grass, herbicidal effect [6, 18]: 0 (Herbicidal rate of 5% or less (almost no effect))
R: persian speedwell, herbicidal effect [8, 18]: 3 (Herbicidal rate of 40% or more and less than 70%)
N: redroot pigweed, herbicidal effect [10, 18]: 3 (Herbicidal rate of 40% or more and less than 70%)
Q: false cleavers, herbicidal effect [11, 18]: 3 (Herbicidal rate of 40% or more and less than 70%)
I: wild oat, herbicidal effect [12, 18]: 0 (Herbicidal rate of 5% or less (almost no effect))
P: chickweed, herbicidal effect [13, 18]: 1 (Herbicidal rate of 5% or more and less than 20%)
L: windgrass, herbicidal effect [16, 18]: 0 (Herbicidal rate of 5% or less (almost no effect))
G: green foxtail, herbicidal effect [15, 18]: 0 (Herbicidal rate of 5% or less (almost no effect))

COCCOCOc1c(C)nn(C)c(=O)c1-c1c(-c2ccc(OCC(=O)OC)cc2)sc2ccccc12 [1-233]
effect on southern crabgrass (F) [1, 19]: 0 (Herbicidal rate of 5% or less (almost no effect))
effect on Italian ryegrass (K) [2, 19]: 0 (Herbicidal rate of 5% or less (almost no effect))
effect on lambsquarters (O) [3, 19]: 2 (Herbicidal rate of 20% or more and less than 40%)
effect on blackgrass (J) [4, 19]: 0 (Herbicidal rate of 5% or less (almost no effect))
effect on velvetleaf (M) [5, 19]: 0 (Herbicidal rate of 5% or less (almost no effect))
effect on barnyard grass (H) [6, 19]: 0 (Herbicidal rate of 5% or less (almost no effect))
effect on persian speedwell (R) [8, 19]: 0 (Herbicidal rate of 5% or less (almost no effect))
effect on false cleavers (Q) [11, 19]: 0 (Herbicidal rate of 5% or less (almost no effect))
effect on wild oat (I) [12, 19]: 0 (Herbicidal rate of 5% or less (almost no effect))
effect on windgrass (L) [16, 19]: 0 (Herbicidal rate of 5% or less (almost no effect))
effect on green foxtail (G) [15, 19]: 0 (Herbicidal rate of 5% or less (almost no effect))

CCCC(=O)Oc1c(C)nn(C)c(=O)c1-c1c(-c2ccc(OC)c(C)c2)sc2ccc(Cl)cc12 [2-120]
herbicidal effect on F: southern crabgrass [1, 20]: 0 (Herbicidal rate of 5% or less (almost no effect))
herbicidal effect on K: Italian ryegrass [2, 20]: 0 (Herbicidal rate of 5% or less (almost no effect))
herbicidal effect on O: lambsquarters [3, 20]: 0 (Herbicidal rate of 5% or less (almost no effect))
herbicidal effect on J: blackgrass [4, 20]: 0 (Herbicidal rate of 5% or less (almost no effect))
herbicidal effect on M: velvetleaf [5, 20]: 0 (Herbicidal rate of 5% or less (almost no effect))
herbicidal effect on H: barnyard grass [6, 20]: 0 (Herbicidal rate of 5% or less (almost no effect))
herbicidal effect on R: persian speedwell [8, 20]: 5 (Herbicidal rate of 90% or more (almost completely withered))
herbicidal effect on N: redroot pigweed [10, 20]: 0 (Herbicidal rate of 5% or less (almost no effect))
herbicidal effect on Q: false cleavers [11, 20]: 4 (Herbicidal rate of 70% or more and less than 90%)
herbicidal effect on I: wild oat [12, 20]: 0 (Herbicidal rate of 5% or less (almost no effect))
herbicidal effect on P: chickweed [13, 20]: 5 (Herbicidal rate of 90% or more (almost completely withered))
herbicidal effect on L: windgrass [16, 20]: 0 (Herbicidal rate of 5% or less (almost no effect))
herbicidal effect on G: green foxtail [15, 20]: 0 (Herbicidal rate of 5% or less (almost no effect))

COc1cc2sc(-c3ccc(F)cc3)c(-c3c(O)c(C)nn(C)c3=O)c2cc1OC [5-057]
herbicidal effect on southern crabgrass (F) [1, 17]: 0 (Herbicidal rate of 5% or less (almost no effect))
herbicidal effect on Italian ryegrass (K) [2, 17]: 0 (Herbicidal rate of 5% or less (almost no effect))
herbicidal effect on lambsquarters (O) [3, 17]: 0 (Herbicidal rate of 5% or less (almost no effect))
herbicidal effect on blackgrass (J) [4, 17]: 0 (Herbicidal rate of 5% or less (almost no effect))
herbicidal effect on velvetleaf (M) [5, 17]: 0 (Herbicidal rate of 5% or less (almost no effect))
herbicidal effect on barnyard grass (H) [6, 17]: 0 (Herbicidal rate of 5% or less (almost no effect))
herbicidal effect on persian speedwell (R) [8, 17]: 4 (Herbicidal rate of 70% or more and less than 90%)
herbicidal effect on false cleavers (Q) [11, 17]: 0 (Herbicidal rate of 5% or less (almost no effect))
herbicidal effect on wild oat (I) [12, 17]: 0 (Herbicidal rate of 5% or less (almost no effect))
herbicidal effect on windgrass (L) [16, 17]: 0 (Herbicidal rate of 5% or less (almost no effect))
herbicidal effect on green foxtail (G) [15, 17]: 0 (Herbicidal rate of 5% or less (almost no effect))

CCOc1ccccc1-c1cc2c(-c3c(O)c(C)nn(C)c3=O)c(-c3ccccc3OCC)sc2cc1OC [5-079]
herbicidal effect on southern crabgrass (F) [1, 17]: 0 (Herbicidal rate of 5% or less (almost no effect))
herbicidal effect on Italian ryegrass (K) [2, 17]: 0 (Herbicidal rate of 5% or less (almost no effect))
herbicidal effect on lambsquarters (O) [3, 17]: 0 (Herbicidal rate of 5% or less (almost no effect))
herbicidal effect on blackgrass (J) [4, 17]: 0 (Herbicidal rate of 5% or less (almost no effect))
herbicidal effect on velvetleaf (M) [5, 17]: 0 (Herbicidal rate of 5% or less (almost no effect))
herbicidal effect on barnyard grass (H) [6, 17]: 0 (Herbicidal rate of 5% or less (almost no effect))
herbicidal effect on rice flat sedge (E) [7]: 0 (Herbicidal rate of 5% or less (almost no effect))
herbicidal effect on persian speedwell (R) [8, 17]: 0 (Herbicidal rate of 5% or less (almost no effect))
herbicidal effect on Chinese sprangletop (D) [9]: 0 (Herbicidal rate of 5% or less (almost no effect))
herbicidal effect on false cleavers (Q) [11, 17]: 5 (Herbicidal rate of 90% or more (almost completely withered))
herbicidal effect on wild oat (I) [12, 17]: 0 (Herbicidal rate of 5% or less (almost no effect))
herbicidal effect on barnyard grass (H) [14]: 3 (Herbicidal rate of 40% or more and less than 70%)
herbicidal effect on windgrass (L) [16, 17]: 0 (Herbicidal rate of 5% or less (almost no effect))
herbicidal effect on green foxtail (G) [15, 17]: 0 (Herbicidal rate of 5% or less (almost no effect))
